According to the NIST ThermoML archive (doi:10.1021/je9004189):
Numbers after ± are expanded uncertainties.

How the values were obtained:
[1] = 293.15 K, 101.33 kPa, Liquid
[2] = refractive index (Na D-line) (dimensionless); details: 293.15 K; 101.33 kPa; Liquid; Standard Abbe refractometry

Row | mass density ([1]; Vibrating tube method) | refractive index [2] | SMILES | mass density [1]
1 | 879 ± 1 kg/m3 | 1.5011 ± 0.0007 | c1ccccc1 [benzene] | 
2 | 792 ± 1 kg/m3 | 1.3301 ± 0.0007 | CO [methanol] | 
3 | 790 ± 1 kg/m3 | 1.366 ± 0.0007 | CCO [ethanol] | 

Row | SMILES | mass density ([1]; Vibrating tube method) | refractive index [2] | mass density [1]
4 | CC(C)=O [acetone] |  | 1.359 ± 0.0007 | 790 ± 1 kg/m3
